Results taken from patent US11872222B2, “Uses” (NeRRe Therapeutics Limited, priority 2020, dated 2024).

Legend:
[1] = test system: VILI mouse model of mechanical injury to the lungs; assay: VILI mouse model: physiological variables (peak inspiratory pressure, elastance); format: in vivo, mice
Experimental: Orvepitant was evaluated in a VILI mouse model of mechanical injury to the lungs.
Male C57/BL6 mice were pre-treated with oral orvepitant (250 mg/kg) or vehicle control (10 ml/kg, 0.1% tween 80:0.5% hydroxypropyl methylcellulose [HPMC]), approximately 30 minutes before initiation of experimental ventilation.
(§1) Mice were anesthetized and tracheotomised for ventilation. The left carotid artery was cannulated to monitor blood pressure (BP), infuse heparinised saline (0.4 ml/hr of 10 units/ml of heparin), and measure sequential blood gas analyses. Airway pressure was monitored continuously, while respiratory mechanics including respiratory resistance (Rrs) and elastance (Ers), were measured at predetermined intervals by end-inflation occlusion. Vehicle-treated or orvepitant-treated animals were ventilated with high tidal volume (33-37 ml/kg) for up to 150 minutes or until a mortality surrogate (increase of >25% peak inspiratory pressure) was reached. As a control group, vehicle-treated animals only were ventilated with low tidal volume (8-9 ml/kg) to confirm the impact of injurious ventilation. Following termination, bronchoalveolar lavage fluid (BAL) was collected for analysis and lungs were processed for flow cytometric evaluation of leukocyte numbers and expression of ICAM-1 on alveolar macrophages and epithelial cells.
Data were evaluated for normality by Shapiro-Wilk test of residuals and QQ plots. Normally distributed data were evaluated by t-test for end-point analysis, or 2-way ANOVA for time courses. Non-normally distributed data were evaluated by Mann-Whitney U test. N=6-7 animals for each dataset.

[2] = test system: VILI mouse model of mechanical injury to the lungs; assay: VILI mouse model: bronchoalveolar lavage fluid (BAL) markers; format: in vivo; details: male C57/BL6 mice, oral 250 mg/kg pre-treatment, high tidal volume ventilation; FIG. 3
Experimental: as §1, with “Orvepitant was evaluated in a VILI mouse model of mechanical injury to the lungs. Male C57/BL6 mice were pre-treated with oral orvepitant (250 mg/kg) or vehicle control (10 ml/kg, 0.1% tween 80:0.5% hydroxypropyl methylcellulose [HPMC]), approximately 30 minutes before initiation of experimental ventilation. Mice” for “Mice”, “cells. Data were evaluated for normality by Shapiro-Wilk test of residuals and QQ plots. Normally distributed data were evaluated by t-test for end-point analysis, or 2-way ANOVA for time courses. Non-normally distributed data were evaluated by Mann-Whitney U test. N=6-7 animals for each dataset. Bronchoalveolar lavage fluid (BAL) markers. BAL total protein concentration was measured as a marker of alveolar-epithelial barrier permeability.” for “cells.”

[3] = test system: VILI mouse model of mechanical injury to the lungs; assay: VILI mouse model: flow cytometric analyses of lung cell suspensions (leukocyte numbers, ICAM-1 surface expression); format: in vivo; details: male C57/BL6 mice, oral 250 mg/kg pre-treatment, high tidal volume ventilation, flow cytometry, FIG. 2
Experimental: Orvepitant was evaluated in a VILI mouse model of mechanical injury to the lungs. Male C57/BL6 mice were pre-treated with oral orvepitant (250 mg/kg) or vehicle control (10 ml/kg, 0.1% tween 80:0.5% hydroxypropyl methylcellulose [HPMC]), approximately 30 minutes before initiation of experimental ventilation. Mice were anesthetized and tracheotomised for ventilation. The left carotid artery was cannulated to monitor blood pressure (BP), infuse heparinised saline (0.4 ml/hr of 10 units/ml of heparin), and measure sequential blood gas analyses. Airway pressure was monitored continuously, while respiratory mechanics including respiratory resistance (Rrs) and elastance (Ers), were measured at predetermined intervals by end-inflation occlusion. Vehicle-treated or orvepitant-treated animals were ventilated with high tidal volume (33-37 ml/kg) for up to 150 minutes or until a mortality surrogate (increase of >25% peak inspiratory pressure) was reached. As a control group, vehicle-treated animals only were ventilated with low tidal volume (8-9 ml/kg) to confirm the impact of injurious ventilation. Following termination, bronchoalveolar lavage fluid (BAL) was collected for analysis and lungs were processed for flow cytometric evaluation of leukocyte numbers and expression of ICAM-1 on alveolar macrophages and epithelial cells. Data were evaluated for normality by Shapiro-Wilk test of residuals and QQ plots. Normally distributed data were evaluated by t-test for end-point analysis, or 2-way ANOVA for time courses. Non-normally distributed data were evaluated by Mann-Whitney U test. N=6-7 animals for each dataset. Flow cytometric analyses. Lung cell suspensions were evaluated for quantification of neutrophils and Ly6C high inflammatory (Ly6CN) monocytes by flow cytometry. […] Activation of alveolar macrophages and type 1 and type 2 epithelial cells was determined by assaying for surface expression of ICAM-1.

Cc1cc(F)ccc1[C@H]1C[C@@H](N2CCN3C(=O)CC[C@H]3C2)CCN1C(=O)N(C)[C@H](C)c1cc(C(F)(F)F)cc(C(F)(F)F)c1 [orvepitant]
Peak inspiratory pressure at the start of ventilation ([1]; male C57/BL6 mice, oral 250 mg/kg approx. 30 min before ventilation, vs vehicle): identical between vehicle and orvepitant pre-treated animals | Course of peak inspiratory pressure change over time ([1]; male C57/BL6 mice, oral 250 mg/kg pre-treatment, high tidal volume (33-37 ml/kg) ventilation up to 150 min, vs vehicle, FIG. 1): significantly different between groups | 'End' peak inspiratory pressure (final value recorded) ([1]; male C57/BL6 mice, oral 250 mg/kg pre-treatment, high tidal volume ventilation, 150 min or mortality surrogate, vs vehicle, FIG. 1): significantly higher in vehicle-treated animals than those receiving orvepitant | Changes in respiratory system elastance over time ([1]; male C57/BL6 mice, oral 250 mg/kg pre-treatment, high tidal volume ventilation, vs vehicle, FIG. 1): differences between groups did not quite achieve statistical significance | Mechanical lung injury induced by mechanical ventilation (overall conclusion) ([1]; mice, oral pretreatment): substantial, significant attenuation | Increase in BAL IL-6 [2]: significantly attenuated | Increase in BAL MCP-1 [CCL-2] [2]: significantly attenuated | Increase in BAL TGF-β [2]: significantly attenuated | Increase in BAL total protein concentration (marker of alveolar-epithelial barrier permeability) [2]: significantly attenuated | Ly6C high inflammatory monocyte numbers within lung tissue ([3]; vs vehicle): significant decrease | Neutrophil numbers within lung tissue ([3]; vs vehicle): significant decrease | Upregulation of ICAM-1 surface expression on alveolar macrophages [3]: significantly attenuated | Upregulation of ICAM-1 surface expression on type 1 epithelial cells [3]: significantly attenuated | Upregulation of ICAM-1 surface expression on type 2 epithelial cells [3]: significantly attenuated
